Laboratory results taken from patent publication US8192962B2, “Processes for detecting toxic substances” (Daikin Industries, Ltd., priority 2001, dated 2012).

Tested on: Stress protein genes
Experiment: DNA chip mRNA expression in yeast, stress protein genes (Table 6)
Assay type: cell-based, Saccharomyces cerevisiae S288C
Method in brief: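 Whole-genome yeast DNA chip hybridization (65° C., >12 h) of Cy-labeled cDNA from S288C cells exposed 2 h at 25° C. to a sub-lethal toxicant dose in YPD; value is intensity relative to chemical-free control.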

S=C([S-])NCCNC(=S)[S-].[Zn+2] [(11), zinc N,N′-ethylenebis(dithiocarbamate)]
The level of expressed mRNA in the presence of chemical substance/The level of expressed mRNA in the absence of chemical substance (yeast gene YAL005C): 1.0
The level of expressed mRNA in the presence of chemical substance/The level of expressed mRNA in the absence of chemical substance (yeast gene YAL015C): 1.4
The level of expressed mRNA in the presence of chemical substance/The level of expressed mRNA in the absence of chemical substance (yeast gene YBL075C): 1.6
The level of expressed mRNA in the presence of chemical substance/The level of expressed mRNA in the absence of chemical substance (yeast gene YBL093C): 1.3
The level of expressed mRNA in the presence of chemical substance/The level of expressed mRNA in the absence of chemical substance (yeast gene YBR044C): 1.1
The level of expressed mRNA in the presence of chemical substance/The level of expressed mRNA in the absence of chemical substance (yeast gene YBR054W): 1.8
The level of expressed mRNA in the presence of chemical substance/The level of expressed mRNA in the absence of chemical substance (yeast gene YBR067C): 3.1
The level of expressed mRNA in the presence of chemical substance/The level of expressed mRNA in the absence of chemical substance (yeast gene YBR072W): 6.3
The level of expressed mRNA in the presence of chemical substance/The level of expressed mRNA in the absence of chemical substance (yeast gene YBR126C): 1.1
The level of expressed mRNA in the presence of chemical substance/The level of expressed mRNA in the absence of chemical substance (yeast gene YBR169C): 2.2
The level of expressed mRNA in the presence of chemical substance/The level of expressed mRNA in the absence of chemical substance (yeast gene YCL035C): 2.1
The level of expressed mRNA in the presence of chemical substance/The level of expressed mRNA in the absence of chemical substance (yeast gene YCR021C): 0.6
The level of expressed mRNA in the presence of chemical substance/The level of expressed mRNA in the absence of chemical substance (yeast gene YCR060W): 1.2
The level of expressed mRNA in the presence of chemical substance/The level of expressed mRNA in the absence of chemical substance (yeast gene YCR083W): 1.8
The level of expressed mRNA in the presence of chemical substance/The level of expressed mRNA in the absence of chemical substance (yeast gene YDL022W): 2.8
The level of expressed mRNA in the presence of chemical substance/The level of expressed mRNA in the absence of chemical substance (yeast gene YDL025C): 1.5
The level of expressed mRNA in the presence of chemical substance/The level of expressed mRNA in the absence of chemical substance (yeast gene YDR033W): 0.7
The level of expressed mRNA in the presence of chemical substance/The level of expressed mRNA in the absence of chemical substance (yeast gene YDR077W): 6.8
The level of expressed mRNA in the presence of chemical substance/The level of expressed mRNA in the absence of chemical substance (yeast gene YDR098C): 1.4
The level of expressed mRNA in the presence of chemical substance/The level of expressed mRNA in the absence of chemical substance (yeast gene YDR155C): 3.8
The level of expressed mRNA in the presence of chemical substance/The level of expressed mRNA in the absence of chemical substance (yeast gene YDR258C): 1.7
The level of expressed mRNA in the presence of chemical substance/The level of expressed mRNA in the absence of chemical substance (yeast gene YDR293C): 1.1
The level of expressed mRNA in the presence of chemical substance/The level of expressed mRNA in the absence of chemical substance (yeast gene YDR436W): 2.0
The level of expressed mRNA in the presence of chemical substance/The level of expressed mRNA in the absence of chemical substance (yeast gene YDR513W): 2.0
The level of expressed mRNA in the presence of chemical substance/The level of expressed mRNA in the absence of chemical substance (yeast gene YDR519W): 1.2
The level of expressed mRNA in the presence of chemical substance/The level of expressed mRNA in the absence of chemical substance (yeast gene YEL030W): 1.7
The level of expressed mRNA in the presence of chemical substance/The level of expressed mRNA in the absence of chemical substance (yeast gene YEL039C): 1.7
The level of expressed mRNA in the presence of chemical substance/The level of expressed mRNA in the absence of chemical substance (yeast gene YER042W): 1.8
The level of expressed mRNA in the presence of chemical substance/The level of expressed mRNA in the absence of chemical substance (yeast gene YER057C): 1.8
The level of expressed mRNA in the presence of chemical substance/The level of expressed mRNA in the absence of chemical substance (yeast gene YER103W): 1.8
The level of expressed mRNA in the presence of chemical substance/The level of expressed mRNA in the absence of chemical substance (yeast gene YER125W): 1.0
The level of expressed mRNA in the presence of chemical substance/The level of expressed mRNA in the absence of chemical substance (yeast gene YFL014W): 5.0
The level of expressed mRNA in the presence of chemical substance/The level of expressed mRNA in the absence of chemical substance (yeast gene YFL016C): 1.2
The level of expressed mRNA in the presence of chemical substance/The level of expressed mRNA in the absence of chemical substance (yeast gene YFL020C): 1.2
The level of expressed mRNA in the presence of chemical substance/The level of expressed mRNA in the absence of chemical substance (yeast gene YFR052W): 0.9
The level of expressed mRNA in the presence of chemical substance/The level of expressed mRNA in the absence of chemical substance (yeast gene YGL073W): 0.8
The level of expressed mRNA in the presence of chemical substance/The level of expressed mRNA in the absence of chemical substance (yeast gene YGL115W): 1.0
The level of expressed mRNA in the presence of chemical substance/The level of expressed mRNA in the absence of chemical substance (yeast gene YGL181W): 1.2
The level of expressed mRNA in the presence of chemical substance/The level of expressed mRNA in the absence of chemical substance (yeast gene YGR088W): 3.9
The level of expressed mRNA in the presence of chemical substance/The level of expressed mRNA in the absence of chemical substance (yeast gene YHL028W): 0.7
The level of expressed mRNA in the presence of chemical substance/The level of expressed mRNA in the absence of chemical substance (yeast gene YHL046C): 0.4
The level of expressed mRNA in the presence of chemical substance/The level of expressed mRNA in the absence of chemical substance (yeast gene YHR030C): 1.5
The level of expressed mRNA in the presence of chemical substance/The level of expressed mRNA in the absence of chemical substance (yeast gene YHR057C): 1.6
The level of expressed mRNA in the presence of chemical substance/The level of expressed mRNA in the absence of chemical substance (yeast gene YHR104W): 2.6
The level of expressed mRNA in the presence of chemical substance/The level of expressed mRNA in the absence of chemical substance (yeast gene YIL011W): 2.5
The level of expressed mRNA in the presence of chemical substance/The level of expressed mRNA in the absence of chemical substance (yeast gene YIL033C): 1.8
The level of expressed mRNA in the presence of chemical substance/The level of expressed mRNA in the absence of chemical substance (yeast gene YIR037W): 3.0
The level of expressed mRNA in the presence of chemical substance/The level of expressed mRNA in the absence of chemical substance (yeast gene YIR038C): 3.4
The level of expressed mRNA in the presence of chemical substance/The level of expressed mRNA in the absence of chemical substance (yeast gene YJL128C): 0.6
The level of expressed mRNA in the presence of chemical substance/The level of expressed mRNA in the absence of chemical substance (yeast gene YJL158C): 1.9
The level of expressed mRNA in the presence of chemical substance/The level of expressed mRNA in the absence of chemical substance (yeast gene YJL159W): 1.2
The level of expressed mRNA in the presence of chemical substance/The level of expressed mRNA in the absence of chemical substance (yeast gene YJL165C): 1.7
The level of expressed mRNA in the presence of chemical substance/The level of expressed mRNA in the absence of chemical substance (yeast gene YJR045C): 1.4
The level of expressed mRNA in the presence of chemical substance/The level of expressed mRNA in the absence of chemical substance (yeast gene YJR090C): 0.4
The level of expressed mRNA in the presence of chemical substance/The level of expressed mRNA in the absence of chemical substance (yeast gene YKL161C): 3.1
The level of expressed mRNA in the presence of chemical substance/The level of expressed mRNA in the absence of chemical substance (yeast gene YKL163W): 1.3
The level of expressed mRNA in the presence of chemical substance/The level of expressed mRNA in the absence of chemical substance (yeast gene YKL164C): 1.0
The level of expressed mRNA in the presence of chemical substance/The level of expressed mRNA in the absence of chemical substance (yeast gene YKL210W): 1.4
The level of expressed mRNA in the presence of chemical substance/The level of expressed mRNA in the absence of chemical substance (yeast gene YKR053C): 0.5
The level of expressed mRNA in the presence of chemical substance/The level of expressed mRNA in the absence of chemical substance (yeast gene YLL024C): 1.6
The level of expressed mRNA in the presence of chemical substance/The level of expressed mRNA in the absence of chemical substance (yeast gene YLL026W): 1.7
The level of expressed mRNA in the presence of chemical substance/The level of expressed mRNA in the absence of chemical substance (yeast gene YLL039C): 1.1
The level of expressed mRNA in the presence of chemical substance/The level of expressed mRNA in the absence of chemical substance (yeast gene YLL060C): 14.1
The level of expressed mRNA in the presence of chemical substance/The level of expressed mRNA in the absence of chemical substance (yeast gene YLR006C): 1.5
The level of expressed mRNA in the presence of chemical substance/The level of expressed mRNA in the absence of chemical substance (yeast gene YLR109W): 1.5
The level of expressed mRNA in the presence of chemical substance/The level of expressed mRNA in the absence of chemical substance (yeast gene YLR259C): 3.0
The level of expressed mRNA in the presence of chemical substance/The level of expressed mRNA in the absence of chemical substance (yeast gene YML007W): 1.3
The level of expressed mRNA in the presence of chemical substance/The level of expressed mRNA in the absence of chemical substance (yeast gene YML070W): 1.5
The level of expressed mRNA in the presence of chemical substance/The level of expressed mRNA in the absence of chemical substance (yeast gene YMR021C): 0.9
The level of expressed mRNA in the presence of chemical substance/The level of expressed mRNA in the absence of chemical substance (yeast gene YMR173W): 3.2
The level of expressed mRNA in the presence of chemical substance/The level of expressed mRNA in the absence of chemical substance (yeast gene YMR186W): 1.1
The level of expressed mRNA in the presence of chemical substance/The level of expressed mRNA in the absence of chemical substance (yeast gene YNL064C): 0.9
The level of expressed mRNA in the presence of chemical substance/The level of expressed mRNA in the absence of chemical substance (yeast gene YNL160W): 5.4
The level of expressed mRNA in the presence of chemical substance/The level of expressed mRNA in the absence of chemical substance (yeast gene YNL241C): 3.0
The level of expressed mRNA in the presence of chemical substance/The level of expressed mRNA in the absence of chemical substance (yeast gene YNR076W): 1.4
The level of expressed mRNA in the presence of chemical substance/The level of expressed mRNA in the absence of chemical substance (yeast gene YOL064C): 1.0
The level of expressed mRNA in the presence of chemical substance/The level of expressed mRNA in the absence of chemical substance (yeast gene YOL161C): 1.5
The level of expressed mRNA in the presence of chemical substance/The level of expressed mRNA in the absence of chemical substance (yeast gene YOR008C): 1.0
The level of expressed mRNA in the presence of chemical substance/The level of expressed mRNA in the absence of chemical substance (yeast gene YOR009W): 1.4
The level of expressed mRNA in the presence of chemical substance/The level of expressed mRNA in the absence of chemical substance (yeast gene YOR010C): 1.2
The level of expressed mRNA in the presence of chemical substance/The level of expressed mRNA in the absence of chemical substance (yeast gene YOR027W): 1.3
The level of expressed mRNA in the presence of chemical substance/The level of expressed mRNA in the absence of chemical substance (yeast gene YOR208W): 1.2
The level of expressed mRNA in the presence of chemical substance/The level of expressed mRNA in the absence of chemical substance (yeast gene YPL059W): 1.6
The level of expressed mRNA in the presence of chemical substance/The level of expressed mRNA in the absence of chemical substance (yeast gene YPL106C): 1.3
The level of expressed mRNA in the presence of chemical substance/The level of expressed mRNA in the absence of chemical substance (yeast gene YPL140C): 0.8
The level of expressed mRNA in the presence of chemical substance/The level of expressed mRNA in the absence of chemical substance (yeast gene YPL194W): 0.9
The level of expressed mRNA in the presence of chemical substance/The level of expressed mRNA in the absence of chemical substance (yeast gene YPL223C): 1.8
The level of expressed mRNA in the presence of chemical substance/The level of expressed mRNA in the absence of chemical substance (yeast gene YPL240C): 1.0
The level of expressed mRNA in the presence of chemical substance/The level of expressed mRNA in the absence of chemical substance (yeast gene YPR005C): 0.4
The level of expressed mRNA in the presence of chemical substance/The level of expressed mRNA in the absence of chemical substance (yeast gene YPR026W): 1.6
